Source: ChEMBL document CHEMBL1127582, “Novel 3 alpha-(diphenylmethoxy)tropane analogs: potent dopamine uptake inhibitors without cocaine-like behavioral profiles” (J Med Chem, 1994)

Columns and labels:
Rattus norvegicus = species: Rattus norvegicus; assay: Compound was evaluated for its ability to block the [3H]-Dopamine uptake in rat caudate-putamen; assay type: functional, organism-based
[1] = target: Sodium-dependent dopamine transporter (Rattus norvegicus, UniProt P23977); assay: Compound was evaluated for its ability to displace [3H]WIN-35428 binding in rat caudate-putamen; assay type: tissue-based
Sequence of Sodium-dependent dopamine transporter (P23977 whole entry): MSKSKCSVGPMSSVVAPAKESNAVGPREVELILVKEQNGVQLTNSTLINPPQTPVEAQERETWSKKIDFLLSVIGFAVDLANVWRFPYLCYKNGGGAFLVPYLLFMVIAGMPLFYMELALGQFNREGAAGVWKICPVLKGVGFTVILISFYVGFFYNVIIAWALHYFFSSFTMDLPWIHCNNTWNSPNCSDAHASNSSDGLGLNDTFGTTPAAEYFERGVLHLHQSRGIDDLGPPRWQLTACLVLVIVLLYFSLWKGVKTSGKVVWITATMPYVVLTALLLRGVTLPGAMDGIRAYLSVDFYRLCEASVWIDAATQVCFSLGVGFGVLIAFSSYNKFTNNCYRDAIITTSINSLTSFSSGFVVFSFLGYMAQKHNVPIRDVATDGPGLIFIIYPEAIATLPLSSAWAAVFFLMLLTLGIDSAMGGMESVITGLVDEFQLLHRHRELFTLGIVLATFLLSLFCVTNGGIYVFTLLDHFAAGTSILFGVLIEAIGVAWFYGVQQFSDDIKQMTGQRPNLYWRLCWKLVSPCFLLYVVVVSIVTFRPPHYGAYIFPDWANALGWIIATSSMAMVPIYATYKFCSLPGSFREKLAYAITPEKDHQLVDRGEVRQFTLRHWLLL

Row | SMILES | IC50 (Rattus norvegicus) | Ki [1]
1 | COc1ccc(C(OC2CC3CCC(C2)N3C)c2ccc(OC)cc2)cc1 (centres undefined) | 2880 nM | 2000 nM
2 | COc1ccc(C(OC2CC3CCC(C2)N3C)c2ccccc2)cc1 (centres undefined) | 468 nM | 78.4 nM
3 | CN1C2CCC1CC(OC(c1ccccc1)c1ccc(Cl)cc1)C2 (centres undefined) | 3520 nM | 854 nM
4 | CN1[C@@H]2CC[C@H]1C[C@@H](OC(c1ccccc1)c1ccc(Cl)cc1)C2 (some centres undefined) | 115 nM | 30 nM
5 | Fc1ccc(C(OCCN2CCN(CCCc3ccccc3)CC2)c2ccc(F)cc2)cc1 [VANOXERINE] | 5 nM | 
